# Test results reported in PubChem BioAssay (NCI).
#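 Assay format: 96-well plates, 48-hour exposure. TGI: total growth inhibition.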
# How the values were obtained:
# Experiment in all cases: DTP human tumour cell line panel, 48 h
# [1] = test system: MDA-MB-435
# [2] = test system: OVCAR-3 ovarian
# [3] = test system: HOP-62 NSCLC
# [4] = test system: HCT-116 colon
# [5] = test system: M14 melanoma
# [6] = test system: DU-145 prostate
# [7] = test system: SNB-19 CNS
# [8] = test system: NCI/ADR-RES ovarian
# [9] = test system: UO-31 renal
# [10] = test system: OVCAR-5 ovarian
# [11] = test system: RPMI-8226 leukemia
# [12] = test system: CAKI-1 renal
# [13] = test system: NCI-H23 lung
# [14] = test system: BT-549 breast
# [15] = test system: LOX IMVI melanoma
# [16] = test system: IGROV1 ovarian
# [17] = test system: HOP-92 NSCLC
# [18] = test system: OVCAR-4 ovarian
# [19] = test system: HL-60(TB) leukemia
# [20] = test system: SK-MEL-5 melanoma
# [21] = test system: U251 CNS
# [22] = test system: SF-295 CNS
# [23] = test system: ACHN renal
# [24] = test system: SN12C renal
# [25] = test system: 786-0 renal
# [26] = test system: SF-268 CNS
# [27] = test system: K-562 leukemia
# [28] = test system: HT29 colon
# [29] = test system: PC-3 prostate
# [30] = test system: SR leukemia
# [31] = test system: TK-10 renal
# [32] = test system: KM12 colon
# [33] = test system: EKVX NSCLC
# [34] = test system: T-47D breast
# [35] = test system: RXF 393 renal
# [36] = test system: UACC-62 melanoma
# [37] = test system: A498 renal
# [38] = test system: SF-539 CNS
# [39] = test system: NCI-H460 lung
# [40] = test system: UACC-257 melanoma
# [41] = test system: A549 NSCLC
# [42] = test system: HCC-2998 colon
# [43] = test system: NCI-H226 lung
# [44] = test system: HCT-15 colon
# [45] = test system: SK-MEL-28 melanoma
# [46] = test system: OVCAR-8 ovarian
# [47] = test system: CCRF-CEM leukemia
# [48] = test system: MDA-N
# [49] = test system: MCF7 breast
# [50] = test system: MALME-3M melanoma
# [51] = test system: SW-620 colon
# [52] = test system: HS 578T breast
# [53] = test system: MOLT-4 leukemia
# [54] = test system: COLO 205 colon
# [55] = test system: MDA-MB-231 breast
# [56] = test system: NCI-H522 lung
# [57] = test system: SNB-75 CNS
# [58] = test system: SK-OV-3 ovarian
# [59] = test system: SK-MEL-2 melanoma
compound,measurement,setting,value
CN(C)c1c(Cl)c(=O)oc2c1ccc1nc(-c3ccccc3)sc12,TGI,[1],> 100 µM
same,TGI,[2],> 100 µM
same,TGI,[3],> 100 µM
same,TGI,[4],> 100 µM
same,TGI,[5],> 100 µM
same,TGI,[6],> 100 µM
same,TGI,[7],> 100 µM
same,TGI,[8],> 100 µM
same,TGI,[9],> 100 µM
same,TGI,[10],> 100 µM
same,TGI,[11],> 100 µM
same,TGI,[12],> 100 µM
same,TGI,[13],> 100 µM
same,TGI,[14],> 100 µM
same,TGI,[15],> 100 µM
same,TGI,[16],> 100 µM
same,TGI,[17],> 100 µM
same,TGI,[18],> 100 µM
same,TGI,[19],> 100 µM
same,TGI,[20],> 100 µM
same,TGI,[21],> 100 µM
same,TGI,[22],> 100 µM
same,TGI,[23],> 100 µM
same,TGI,[24],> 100 µM
same,TGI,[25],> 100 µM
same,TGI,[26],> 100 µM
same,TGI,[27],> 100 µM
same,TGI,[28],> 100 µM
same,TGI,[29],> 100 µM
same,TGI,[30],> 100 µM
same,TGI,[31],> 100 µM
same,TGI,[32],> 100 µM
same,TGI,[33],> 100 µM
same,TGI,[34],> 100 µM
same,TGI,[35],> 100 µM
same,TGI,[36],> 100 µM
same,TGI,[37],> 100 µM
same,TGI,[38],> 100 µM
same,TGI,[39],> 100 µM
same,TGI,[40],> 100 µM
same,TGI,[41],> 100 µM
same,TGI,[42],> 100 µM
same,TGI,[43],> 100 µM
same,TGI,[44],> 100 µM
same,TGI,[45],> 100 µM
same,TGI,[46],> 100 µM
same,TGI,[47],> 100 µM
same,TGI,[48],> 100 µM
same,TGI,[49],> 100 µM
same,TGI,[50],> 100 µM
same,TGI,[51],> 100 µM
same,TGI,[52],> 100 µM
same,TGI,[53],> 100 µM
same,TGI,[54],> 100 µM
same,TGI,[55],> 100 µM
same,TGI,[56],> 100 µM
COc1ccc2nc3ccc(OC)cc3c(S(=O)Cc3ccc([N+](=O)[O-])cc3)c2c1 (stereo not drawn),TGI,[1],26 µM
same,TGI,[2],14.2 µM
same,TGI,[3],30.7 µM
same,TGI,[4],3.12 µM
same,TGI,[5],30.6 µM
same,TGI,[6],6.59 µM
same,TGI,[7],52.3 µM
same,TGI,[8],62.3 µM
same,TGI,[9],12.9 µM
same,TGI,[10],34.5 µM
same,TGI,[11],7.7 µM
same,TGI,[12],28.6 µM
same,TGI,[13],25.1 µM
same,TGI,[14],33.4 µM
same,TGI,[15],34.7 µM
same,TGI,[16],11.1 µM
same,TGI,[17],> 23.5 µM
same,TGI,[18],23.7 µM
same,TGI,[19],6.97 µM
same,TGI,[20],31.8 µM
same,TGI,[57],35.9 µM
same,TGI,[21],> 55.2 µM
same,TGI,[22],41.8 µM
same,TGI,[23],11.2 µM
same,TGI,[24],9.94 µM
same,TGI,[25],4.26 µM
same,TGI,[58],40.1 µM
same,TGI,[26],47.5 µM
same,TGI,[27],> 100 µM
same,TGI,[28],6.33 µM
same,TGI,[29],27.6 µM
same,TGI,[30],> 33.6 µM
same,TGI,[31],10.4 µM
same,TGI,[32],42 µM
same,TGI,[33],32.5 µM
same,TGI,[34],4.34 µM
same,TGI,[35],28.6 µM
same,TGI,[36],29.5 µM
same,TGI,[37],36.3 µM
same,TGI,[38],7.25 µM
same,TGI,[39],67.4 µM
same,TGI,[40],11.4 µM
same,TGI,[41],> 58 µM
same,TGI,[42],34 µM
same,TGI,[43],45.6 µM
same,TGI,[44],10.5 µM
same,TGI,[45],15.7 µM
same,TGI,[46],13.1 µM
same,TGI,[47],> 21.9 µM
same,TGI,[48],29.7 µM
same,TGI,[49],4.26 µM
same,TGI,[50],5.18 µM
same,TGI,[52],25.9 µM
same,TGI,[53],> 23.2 µM
same,TGI,[54],15.9 µM
same,TGI,[55],29.9 µM
same,TGI,[59],34.9 µM
same,TGI,[56],3.37 µM
O=C(C=P(c1ccccc1)(c1ccccc1)c1ccccc1)C12CC3CC(CC(C3)C1)C2,TGI,[1],26.6 µM
same,TGI,[2],28.5 µM
same,TGI,[3],32.3 µM
same,TGI,[4],29.4 µM
same,TGI,[5],32.7 µM
same,TGI,[6],39.3 µM
same,TGI,[7],27 µM
same,TGI,[8],37.6 µM
same,TGI,[9],27.7 µM
same,TGI,[10],32.7 µM
same,TGI,[11],20.6 µM
same,TGI,[12],33.6 µM
same,TGI,[13],33.2 µM
same,TGI,[14],33.8 µM
same,TGI,[15],41.5 µM
same,TGI,[16],30.8 µM
same,TGI,[17],43.2 µM
same,TGI,[18],52.9 µM
same,TGI,[19],27.1 µM
same,TGI,[20],28.8 µM
same,TGI,[57],33.3 µM
same,TGI,[21],34 µM
same,TGI,[23],29.7 µM
same,TGI,[24],32.3 µM
same,TGI,[25],33.4 µM
same,TGI,[26],41.6 µM
same,TGI,[27],25.2 µM
same,TGI,[28],23.2 µM
same,TGI,[29],24 µM
same,TGI,[30],> 100 µM
same,TGI,[31],24.4 µM
same,TGI,[32],32 µM
same,TGI,[33],29.3 µM
same,TGI,[34],38.2 µM
same,TGI,[36],29.1 µM
same,TGI,[37],39.9 µM
same,TGI,[38],37 µM
same,TGI,[39],31.3 µM
same,TGI,[40],32.8 µM
same,TGI,[41],36 µM
same,TGI,[42],32.1 µM
same,TGI,[44],26.7 µM
same,TGI,[45],31.8 µM
same,TGI,[46],34.5 µM
same,TGI,[47],32.7 µM
same,TGI,[48],29.2 µM
same,TGI,[49],35.8 µM
same,TGI,[50],38 µM
same,TGI,[51],34.9 µM
same,TGI,[52],37.6 µM
same,TGI,[54],28.7 µM
same,TGI,[55],32.9 µM
same,TGI,[59],29.5 µM
same,TGI,[56],20.6 µM
